Results: the supplement of paper PMC10331698
± gives the standard deviation of the averaged measurements.

What was measured:
Test in all cases: level (log10 ratio to DMSO vehicle control); higher = higher biomarker level / cell amount than vehicle control
Conditions in all cases: in DMSO
[1] = compound: O=S(=O)(O)C(F)(F)C(F)(F)C(F)(F)C(F)(F)C(F)(F)C(F)(F)F [Perfluorohexanesulfonic acid]
Experimental: (§1)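 BioMAP Diversity Plus panel of 12 human primary cell co-culture systems (3C, 4H, LPS, SAg, BT, BF4T, BE3C, CASM3C, HDF3CGF, KF3CT, MyoF, Mphg). Compounds were added 1 h before stimulation and left for 24 h (MyoF 48 h; BT 72 h for soluble read-outs or 6 d for IgG). Biomarkers were read by ELISA, cytotoxicity by SRB, PBMC viability and proliferation by Alamar Blue. Each well value was divided by the mean of 8 DMSO control wells on the same plate and log10 transformed; duplicate blinded samples were tested at 4 concentrations.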

Pentafluoropropionamide = compound: NC(=O)C(F)(F)C(F)(F)F [Pentafluoropropionamide]
Experimental: as §1

Perfluoro-1-iodohexane = compound: FC(F)(F)C(F)(F)C(F)(F)C(F)(F)C(F)(F)C(F)(F)I [Perfluoro-1-iodohexane]
Experimental: as §1

[2] = compound: O=C(O)C(F)(F)C(F)(F)C(F)(F)C(F)(F)C(F)(F)C(F)(F)C(F)(F)C(F)F [9-H-Perfluorononanoic acid]
Experimental: as §1

[3] = compound: C=CC(=O)OCC(F)(F)C(F)(F)C(F)(F)C(F)(F)C(F)(F)C(F)(F)C(F)(F)F [1H,1H-Perfluorooctyl acrylate]
Experimental: as §1

Perfluoropentanoic acid = compound: O=C(O)C(F)(F)C(F)(F)C(F)(F)C(F)(F)F [Perfluoropentanoic acid]
Experimental: as §1

[4] = compound: C=CC(F)(F)C(F)(F)C(F)(F)C(F)(F)C(F)(F)C(F)(F)C(F)(F)C(F)(F)C=C [1,8-Divinylperfluorooctane]
Experimental: as §1

Test System | level (log10) ([1]; 6700 nM) | level (log10) ([1]; 20000 nM) | level (log10) ([1]; 60000 nM) | level (log10) (Pentafluoropropionamide; 6700 nM) | level (log10) (Pentafluoropropionamide; 20000 nM) | level (log10) (Pentafluoropropionamide; 60000 nM) | level (log10) (Perfluoro-1-iodohexane; 6700 nM) | level (log10) (Perfluoro-1-iodohexane; 20000 nM) | level (log10) (Perfluoro-1-iodohexane; 60000 nM) | level (log10) ([2]; 6700 nM) | level (log10) ([2]; 20000 nM) | level (log10) ([2]; 60000 nM) | level (log10) ([3]; 6700 nM) | level (log10) ([3]; 20000 nM) | level (log10) ([3]; 60000 nM) | level (log10) (Perfluoropentanoic acid; 6700 nM) | level (log10) (Perfluoropentanoic acid; 20000 nM) | level (log10) (Perfluoropentanoic acid; 60000 nM) | level (log10) ([4]; 6700 nM) | level (log10) ([4]; 20000 nM)
SAg:PBMC Cytotoxicity | -0.025 ± 0.0042 | -0.0175 ± 0.026 | 0.0085 ± 0.012 | 0.0005 ± 0.052 | 0.026 ± 0.0042 | 0.0245 ± 0.012 | -0.025 ± 0.023 | -0.014 ± 0.0014 | -0.024 ± 0.028 | 0.007 ± 0.023 | 0.045 ± 0.0099 | 0.0765 ± 0.013 | -0.004 ± 0.017 | 0.0125 ± 0.053 | -0.0535 ± 0.071 | -0.0105 ± 0.023 | -0.0135 ± 0.012 | 0.0145 ± 0.022 | 0.017 ± 0.025 | 0.0425 ± 0.00071
3C:CXCL9/MIG | 0.0015 ± 0.0035 | 0.0035 ± 0.0092 | 0.007 ± 0.0085 | -0.0025 ± 0.0078 | -0.011 ± 0.0071 | 0.0085 ± 0.012 | 0.0045 ± 0.025 | 0.007 ± 0.014 | 0.0075 ± 0.029 | -0.013 ± 0.0071 | 0.0095 ± 0.00071 | 0.0045 ± 0.0021 | 0.0015 ± 0.0035 | -0.002 ± 0.014 | 0.0115 ± 0.005 | -0.0085 ± 0.018 | -0.0125 ± 0.03 | 0.0095 ± 0.028 | -0.0085 ± 0.0064 | 0.0025 ± 0.0092
SAg:CXCL8/IL-8 | 0.0185 ± 0.012 | 0.019 ± 0.018 | 0.107 ± 0.04 | -0.0245 ± 0.025 | -0.0255 ± 0.036 | 0.0075 ± 0.04 | 0.0365 ± 0.016 | -0.004 ± 0.0071 | 0.002 ± 0.059 | 0.01 ± 0.018 | 0.0005 ± 0.0064 | 0.0715 ± 0.013 | -0.0135 ± 0.053 | 0.001 ± 0.052 | 0.003 ± 0.024 | -0.012 ± 0.041 | -0.018 ± 0.044 | -0.013 ± 0.088 | -0.0315 ± 0.013 | 0.006 ± 0.05
LPS:CD69 | -0.0125 ± 0.049 | -0.0035 ± 0.047 | -0.036 ± 0.052 | -0.03 ± 0.0014 | -0.0255 ± 0.016 | -0.01 ± 0.0028 | -0.0185 ± 0.0064 | -0.0025 ± 0.0035 | -0.032 ± 0.0099 | -0.018 ± 0.0028 | -0.0275 ± 0.039 | -0.0575 ± 0.0035 | 0.0025 ± 0.0021 | -0.0095 ± 0.0064 | -0.0305 ± 0.005 | 0.007 ± 0.011 | -0.0305 ± 0.013 | -0.0135 ± 0.083 | -0.0135 ± 0.011 | -0.008 ± 0.014
BF4T:CXCL8/IL-8 | 0.002 ± 0.0085 | 0.0075 ± 0.0078 | 0.0255 ± 0.018 | 0.019 ± 0.028 | 0.0175 ± 0.022 | 0.02 ± 0.02 | 0.0175 ± 0.021 | -0.009 ± 0.058 | 0.016 ± 0.058 | 0.0365 ± 0.021 | 0.038 ± 0.023 | 0.0565 ± 0.016 | 0.0275 ± 0.0092 | 0.01 ± 0.0057 | 0.0465 ± 0.0092 | -0.0345 ± 0.013 | -0.0295 ± 0.013 | -0.0105 ± 0.035 | 0.009 ± 0.03 | 0.0155 ± 0.013
LPS:CD62E/E-Selectin | -0.0035 ± 0.023 | 0.0025 ± 0.0064 | 0.008 ± 0.035 | -0.0265 ± 0.025 | -0.0185 ± 0.028 | -0.004 ± 0.0071 | -0.0115 ± 0.0035 | -0.0175 ± 0.011 | 0.015 ± 0.023 | 0.0005 ± 0.042 | 0.003 ± 0.0071 | 0.0525 ± 0.0035 | 0.0005 ± 0.0021 | 0.0095 ± 0.0092 | 0.0115 ± 0.011 | 0.01 ± 0.0057 | -0.004 ± 0.0071 | 0.015 ± 0.018 | -0.0215 ± 0.029 | -0.023 ± 0.018
BF4T:MMP-9 | 0.006 ± 0.065 | 0.0115 ± 0.073 | 0.0135 ± 0.056 | 0.02 ± 0.024 | -0.001 ± 0.021 | 0.027 ± 0.0042 | -0.0005 ± 0.015 | -0.011 ± 0.0042 | -0.021 ± 0.034 | -0.073 ± 0.045 | -0.039 ± 0.0071 | -0.004 ± 0.0014 | 0.0065 ± 0.028 | 0.0035 ± 0.016 | 0.015 ± 0.033 | -0.0115 ± 0.0064 | -0.0115 ± 0.019 | -0.0005 ± 0.035 | -0.004 ± 0.071 | -0.0115 ± 0.033
BF4T:Keratin 8/18 | 0.007 ± 0.011 | 0.0075 ± 0.0064 | 0.026 ± 0.02 | 0.0075 ± 0.043 | 0.0395 ± 0.05 | 0.0075 ± 0.032 | -0.0075 ± 0.067 | -0.023 ± 0.016 | -0.015 ± 0.088 | -0.007 ± 0.052 | 0.0065 ± 0.044 | 0.0005 ± 0.0035 | 0.02 ± 0.0014 | 0.0005 ± 0.035 | -0.0035 ± 0.053 | 0.0055 ± 0.0064 | -0.002 ± 0.0085 | 0.0055 ± 0.03 | 0.023 ± 0.033 | -0.003 ± 0.033
BF4T:SRB | -0.01 ± 0.0085 | -0.0115 ± 0.0078 | -0.0005 ± 0.0021 | -0.0035 ± 0.00071 | -0.007 ± 0.0071 | -0.004 ± 0.0042 | -0.006 ± 0.0085 | -0.011 ± 0.011 | -0.0135 ± 0.016 | -0.018 ± 0.0085 | -0.018 ± 0.0071 | -0.016 ± 0.0014 | -0.003 | -0.0055 ± 0.011 | 0.002 ± 0.025 | -0.011 ± 0.0085 | -0.008 ± 0.0071 | 0.001 ± 0.0099 | -0.0045 ± 0.0021 | -0.0025 ± 0.00071
SAg:CCL2/MCP-1 | 0.015 ± 0.0071 | 0.0095 ± 0.018 | 0.017 | -0.012 ± 0.0014 | -0.018 ± 0.0099 | -0.0095 ± 0.016 | 0.006 ± 0.018 | -0.0045 ± 0.021 | 0.005 ± 0.05 | -0.009 ± 0.014 | -0.022 ± 0.0014 | 0.0245 ± 0.04 | -0.014 ± 0.0071 | -0.025 ± 0.0071 | 0.001 ± 0.024 | 0.0085 ± 0.021 | -0.0205 ± 0.011 | 0.023 ± 0.031 | -0.001 ± 0.0028 | 0.004 ± 0.0014
LPS:M-CSF | -0.0065 ± 0.025 | -0.0045 ± 0.025 | 0.036 ± 0.02 | -0.0285 ± 0.039 | -0.0055 ± 0.0064 | 0.023 ± 0.0042 | 0.0135 ± 0.019 | -0.0055 ± 0.05 | -0.003 ± 0.025 | -0.025 ± 0.04 | -0.0085 ± 0.016 | 0.0525 ± 0.044 | -0.001 ± 0.017 | 0.0045 ± 0.023 | 0.009 ± 0.0085 | -0.031 ± 0.024 | -0.061 ± 0.11 | -0.0385 ± 0.11 | -0.029 | -0.007 ± 0.031
BE3C:CXCL11/I-TAC | -0.004 ± 0.016 | 0.004 ± 0.011 | 0.0035 ± 0.016 | -0.0065 ± 0.0092 | -0.0055 ± 0.018 | -0.006 ± 0.0071 | -0.0005 ± 0.0021 | 0.002 ± 0.0057 | 0.0175 ± 0.0092 | -0.01 ± 0.0085 | -0.009 ± 0.0085 | -0.036 ± 0.021 | 0.0115 ± 0.00071 | 0.016 ± 0.0099 | 0.009 ± 0.0014 | -0.0175 ± 0.012 | -0.015 ± 0.0028 | -0.005 ± 0.014 | 0.011 ± 0.02 | -0.002 ± 0.0014
LPS:sPGE2 | 0.0115 ± 0.0064 | -0.007 ± 0.0099 | -0.106 ± 0.028 | 0.032 ± 0.0085 | -0.008 ± 0.0071 | -0.018 ± 0.014 | 0.0235 ± 0.0092 | 0.0015 ± 0.00071 | -0.038 ± 0.018 | 0.005 ± 0.0057 | -0.0205 ± 0.0092 | -0.096 ± 0.0042 | -0.045 ± 0.017 | -0.0805 ± 0.0035 | -0.109 ± 0.027 | -0.008 ± 0.11 | -0.018 ± 0.0028 | 0.017 ± 0.011 | -0.005 ± 0.034 | -0.035 ± 0.075
BE3C:EGFR | -0.005 | -0.0085 ± 0.0078 | 0.001 ± 0.0028 | -0.019 ± 0.016 | -0.0095 ± 0.015 | -0.0235 ± 0.04 | 0.0095 ± 0.00071 | -0.0055 ± 0.0021 | 0.0285 ± 0.013 | -0.028 ± 0.0099 | -0.022 ± 0.021 | -0.0425 ± 0.023 | 0.016 ± 0.0071 | 0.01 ± 0.025 | 0.02 ± 0.011 | -0.0025 ± 0.021 | -0.011 ± 0.0057 | 0.004 ± 0.018 | -0.0015 ± 0.022 | -0.006
SAg:CD40 | 0.001 ± 0.0071 | -0.012 ± 0.0099 | -0.029 ± 0.011 | -0.041 ± 0.0071 | -0.0195 ± 0.015 | -0.0445 ± 0.0021 | -0.019 ± 0.013 | -0.0195 ± 0.018 | 0.012 ± 0.061 | -0.0265 ± 0.012 | -0.0275 ± 0.016 | -0.059 ± 0.02 | -0.005 | -0.001 ± 0.0028 | -0.02 ± 0.035 | 0.0105 ± 0.005 | 0.0025 ± 0.0064 | -0.001 ± 0.025 | 0.0085 ± 0.015 | -0.022 ± 0.0028
